From patent publication US6337093B1 (priority 1998, dated 2002) come the findings set out here.

In one assay the test system is tumor. Kind of assay: Combination with bleomycin: tumor growth and life span. The settings on record: in vivo. An excerpt:
As for interferons, interleucins and other known immunomoludatory materials, the efficacy of the pharmaceutical preparations of the present invention is restricted by the basic capacity of the immune system to recognize and attack cancer cells. However, the efficacy may be enhanced when the pharmaceutical preparations are combined with other antitumor drugs.

Assay [1] concerns human and mouse lymphocytes. Kind of assay: Active principle: stimulation of lymphocytes' cytotoxic anticancer activity in vitro. The assay is classed as cell-based. Particulars: comparative analysis of minimum active concentrations.

Consider bleomycin, for which the “Effect on tumor growth and life span” value in the assay with tumor is listed as “much less effective”.

B1: NK-lysin (protein, UniProt P22749 23-145, looked up)
Granulysin: RLSPEYYDLARAHLRDEEKSCPCLAQEGPQGDLLTKTQELGRDYRTCLTIVQKLKKMVDKPTQRSVSNAATRVCRTGRSRWRDVCRNFMRRYQSRVTQGLVAGETAQQICEDLRLCIPSTGPL
notes: Human cytolitic peptide which directly kills the target cells
Take B1: the “Concentration to enhance cancer cell destruction relative to the effective concentration of the active principle” value in assay [1] is reported as “more than a million times”.
